The NIST ThermoML archive (doi:10.1021/acs.jced.5b00367)

How the values were obtained:
[1] = Crystal; visual observation
[2] = mn = molality of the nth substance listed, in mol/kg; details: 303.15 K, 100 kPa, Liquid, Alternating current cell with electrodes
[3] = wn = mass fraction of the nth substance listed; details: 101 kPa, Liquid, Alternating current cell with electrodes, w1 = 0.01

CCCCCCCCCC[N+](CC)(CC)CCCCCCCCCC.[Br-] [didecyldiethylammonium bromide]
Details | Normal melting temperature [°C]
[1] | 45.00

CCCCCCCCCCCC[N+](C)(C)CC[N+](C)(C)CCCCCCCCCCCC.[Br-].[Br-] [1,2-bis(dimethyldodecylammonium)ethane dibromide]
Details | Normal melting temperature [°C]
[1] | 157.00

CCCCCCCCCCCCCCCC[N+](C)(C)C.[Br-] [N,N,N-trimethyl-1-hexadecanaminium bromide]
Details | Normal melting temperature [°C]
[1] | 247.00

CCCCCCCCCCCCCCCC[N+](C)(C)CC[N+](C)(C)CCCCCCCCCCCCCCCC.[Br-].[Br-]
Details | Normal melting temperature [°C]
[1] | 175.00

CCCCCCCCCCCCCCCC[N+](CC)(CC)CCCCCCCCCCCCCCCC.[Br-] [diethyldihexadecylammonium bromide]
Details | Normal melting temperature [°C]
[1] | 73.80

CCCCCCCCCCCC[N+](C)(C)CC[N+](C)(C)CCCCCCCCCCCC.[Br-].[Br-] [1,2-bis(dimethyldodecylammonium)ethane dibromide] + O
Details | electrical conductivity [S/m]
[2], m1 = 0.000201 | 0.00422
[2], m1 = 0.000301 | 0.00612
[2], m1 = 0.000402 | 0.00816
[2], m1 = 0.000503 | 0.00967
[2], m1 = 0.000603 | 0.012
[2], m1 = 0.000703 | 0.0133
[2], m1 = 0.000803 | 0.0162
[2], m1 = 0.001206 | 0.0197
[2], m1 = 0.001407 | 0.0205
[2], m1 = 0.001608 | 0.0212
[2], m1 = 0.001809 | 0.022
[2], m1 = 0.00201 | 0.0226
[2], m1 = 0.002211 | 0.0231
[3], 275.15 K | 0.0196
[3], 276.25 K | 0.0196
[3], 277.35 K | 0.0196
[3], 278.15 K | 0.0196
[3], 279.45 K | 0.0197
[3], 280.25 K | 0.0197
[3], 281.35 K | 0.0197
[3], 282.15 K | 0.0197
[3], 283.15 K | 0.0198
[3], 284.25 K | 0.0198
[3], 285.15 K | 0.0198
[3], 285.65 K | 0.0198
[3], 286.15 K | 0.0199
[3], 288.15 K | 0.0202
[3], 289.15 K | 0.0203
[3], 290.15 K | 0.0204
[3], 291.15 K | 0.0205
[3], 292.15 K | 0.0206
[3], 293.15 K | 0.021
[3], 295.75 K | 0.0212
[3], 298.15 K | 0.0215
[3], 299.65 K | 0.0218
[3], 301.65 K | 0.022
[3], 303.45 K | 0.0222
[3], 305.75 K | 0.0225
[3], 308.15 K | 0.0228
[3], 310.25 K | 0.0229
[3], 311.15 K | 0.023
[3], 313.15 K | 0.0232
[3], 315.15 K | 0.0235
[3], 317.95 K | 0.0237
[3], 318.15 K | 0.024
[3], 320.55 K | 0.0242
[3], 323.15 K | 0.0244
[3], 325.55 K | 0.0245
[3], 327.15 K | 0.0248
[3], 329.35 K | 0.0249
[3], 331.55 K | 0.025
[3], 334.15 K | 0.0252
[3], 335.55 K | 0.0254
[3], 337.95 K | 0.0255
[3], 338.35 K | 0.0258
[3], 340.45 K | 0.026
[3], 343.15 K | 0.0263
[3], 345.15 K | 0.0265
[3], 347.15 K | 0.0266
[3], 349.15 K | 0.0267
[3], 353.05 K | 0.027

CCCCCCCCCCCC[N+](C)(C)C.[Br-] [dodecyltrimethylammonium bromide]
Details | Normal melting temperature [°C]
[1] | 265.00

CCCCCCCCCCCC[N+](CC)(CC)CCCCCCCCCCCC.[Br-] [didodecyldiethylammonium bromide]
Details | Normal melting temperature [°C]
[1] | 52.20

CCCCCCCCCCCCCCCC[N+](C)(C)CC[N+](C)(C)CCCCCCCCCCCCCCCC.[Br-].[Br-] + O
[2]
Details | electrical conductivity [S/m]
m1 = 5e-06 | 0.00031
m1 = 1e-05 | 0.0004
m1 = 1.5e-05 | 0.00049
m1 = 2e-05 | 0.00058
m1 = 2.5e-05 | 0.00065
m1 = 3e-05 | 0.00073
m1 = 3.5e-05 | 0.0008
m1 = 4e-05 | 0.00082
m1 = 5e-05 | 0.00086
m1 = 6e-05 | 0.00088
